Assay results reported in patent US10792633B2, “Composition comprising a fluorine-containing surfactant” (HWK-Kronbichler GmbH, priority 2016, dated 2020).
In brackets after ≈: the same amount, converted by molar mass. Like-named read-outs stand apart in the source and are kept apart here. Marks after values point to notes of the source that are not given here.

Columns and labels:
Assay type in all cases: physicochemical
[1] = Determining the solubility in water; details: for solubility at 5 min: water, 23 °C, thermodynamic from solid
Procedure: The suspension was added to the ultrasound bath for 5 minutes and was centrifuged for 20 minutes. The supernatant was then weighed and was rinsed with argon for 5 minutes to remove any possibly dissolved oxygen. […] The experiment was performed at approximately 23° C.

[2] = Determination of the static surface tension in water (Example 10); details: mean of 10
Text: The determination of the static surface tension for 3-(1H,1H,2H,2H-perfluorooctyl)-2-((1H,1H,2H,2H-perfluorooctyl)thio)-1-methyl-1H-imidazolium chloride in water produced the values indicated in the following Table 6 for the surface tension (OFS) in […] at different concentrations c in wt %. The values for OFS represent the mean value from 10 measurements. The standard deviation S [mN/m] for these values is likewise indicated.

[3] = Measurement of surface tension at suspended drop (Drop Shape Analyser DSA 25)
Procedure: The surface tension was determined at suspended drop using a “Drop Shape Analyser DSA 25” of the Krüss corporation. The drop volume at most measurements amounted to approximately 5 μl. […] Each sample was measured a total of ten times. The standard deviations are marked by s in the table shown below. In the measurements at a concentration of 0.05 wt % surfactant, larger drop volumes were used in some cases to obtain a better reproducibility of the measurement results.

[4] = Use as an emulsifying agent for Teflon (stability of the suspension in water); details: 0.100 g surfactant and 0.200 g Teflon 1 μm in water
Procedure: A solution of 10 ml water, 0.100 g 1-methyl-2-((1H,1H,2H,2H-perfluorooctyl)thio)-1H-imidazolium-2-acrylamido-2-methylpropanesulfonate was dissolved in 10 ml water and 0.200 g Teflon 1 μm (Sigmal-Aldrich) were subsequently added to this solution. A suspension was formed in this process that remained stable for at least 4 hours. After 2 days a white powder had been deposited on the bottom.

[5] = Solubility in organic solvents
[6] = surfactant in water 0.05 wt %, n = 10, drop approx. 5 μl, * 8 μl, ** 20 μl
[7] = surfactant in water 0.5 wt %, n = 10, 24.5-25.1° C.

## Br.Cn1ccnc1SCCC(F)(F)C(F)(F)C(F)(F)C(F)(F)C(F)(F)C(F)(F)F [1-methyl-2-((1H,1H,2H,2H-perfluorooctyl)thio)imidazoliumbromide]
[1]; values not exact
  Solubility in water: 1200 mg/mL

## Cn1cc[n+](CCC(F)(F)C(F)(F)C(F)(F)C(F)(F)C(F)(F)C(F)(F)F)c1SCCC(F)(F)C(F)(F)C(F)(F)C(F)(F)C(F)(F)C(F)(F)F.[Cl-] [3-(1H,1H,2H,2H-perfluorooctyl)-2-((1H,1H,2H,2H-perfluorooctyl)thio)-1-methyl-1H-imidazolium chloride]
[2]; c 0.0025 wt % in water
  OFS (static surface tension): 40.74 mN/m
[2]; c 0.0050 wt % in water
  OFS (static surface tension): 21.29 mN/m
[2]; c 0.0075 wt % in water
  OFS (static surface tension): 18.89 mN/m
[2]; c 0.0100 wt % in water
  OFS (static surface tension): 16.29 mN/m
[2]; c 0.0250 wt % in water
  OFS (static surface tension): 14.43 mN/m
[2]; c 0.0500 wt % in water
  OFS (static surface tension): 15.05 mN/m
[2]; c 0.0750 wt % in water
  OFS (static surface tension): 15.02 mN/m
[2]; c 0.1000 wt % in water
  OFS (static surface tension): 15 mN/m
[2]; c 0.2500 wt % in water
  OFS (static surface tension): 15.5 mN/m
[2]; c 0.5000 wt % in water
  OFS (static surface tension): 14.5 mN/m

## 1-methyl-2-((1H,1H,2H,2H-perfluorooctyl)thio)-1H-imidazolium-2-(methacryloyloxy)ethane-1-sulfonate [Synthesis Example 1]
[1]; approximately 23° C., ultrasound bath 5 minutes, centrifuged 20 minutes
  Solubility in water: approximately 430 g/L
[3]; c 0.005 % in water
  OFS (surface tension): 70.28 mN/m
[3]; c 0.01 % in water
  OFS (surface tension): 32.11 mN/m
[3]; c 0.1 % in water
  OFS (surface tension): 20.8 mN/m
[3]; [6]
  OFS (surface tension): 23.24 mN/m
[3]; [7]
  OFS (surface tension): 16.22 mN/m

## O=C(O)C(F)(F)C(F)(F)C(F)(F)C(F)(F)C(F)(F)C(F)(F)C(F)(F)F [Perfluorooctanoic acid, reference compound]
[3]; [6]
  OFS (surface tension): 55.68** mN/m
[3]; [7]
  OFS (surface tension): 16 mN/m

## Cl.Cn1ccnc1SCCC(F)(F)C(F)(F)C(F)(F)C(F)(F)C(F)(F)C(F)(F)F [1-methyl-2-((1H,1H,2H,2H-perfluorooctyl)thio)imidazoliumchloride]
[1]; values not exact
  Solubility in water: 1750 mg/mL

## CC1(C)C2CCC1(CS(=O)(=O)O)C(=O)C2.Cn1ccnc1SCCC(F)(F)C(F)(F)C(F)(F)C(F)(F)C(F)(F)C(F)(F)F [1-methyl-2-((1H,1H,2H,2H-perfluorooctyl)thio)imidazolium-(±)-camphor-10-sulfonate]
[1]; values not exact
  Solubility in water: >4000 mg/mL

## Cn1cc[n+](CCCS(=O)(=O)[O-])c1SCCC(F)(F)C(F)(F)C(F)(F)C(F)(F)C(F)(F)C(F)(F)F [Synthesis Example 6, 3-(1-methyl-2-((1H,1H,2H,2H-perfluorooctyl)thio)imidazolium-3-yl) propane-1-sulfonate]
[1]; values not exact, read-out: Solubility in water
  solubility at 5 min: 160 mg/mL (≈ 275 mM)
[1]; read-out: water solubility
  solubility at 5 min: ~160 mg/mL (≈ 275 mM)
[3]; [6]
  OFS (surface tension): 29.74* mN/m
[3]; [7]
  OFS (surface tension): 24.94 mN/m

## C=CC(=O)NC(C)(C)CS(=O)(=O)O.Cn1ccnc1SCCC(F)(F)C(F)(F)C(F)(F)C(F)(F)C(F)(F)C(F)(F)F [Synthesis Example 2, 1-methyl-2-((1H,1H,2H,2H-perfluorooctyl)thio)-1H-imidazolium-2-acrylamido-2-methylpropanesulfonate]
[1]
  soluble in water (in words): soluble in water
[4]
  time the Teflon suspension remained stable: at least 4 hours

## CS(=O)(=O)O.Cn1ccnc1SCCC(F)(F)C(F)(F)C(F)(F)C(F)(F)C(F)(F)C(F)(F)F [1-methyl-2-((1H,1H,2H,2H-perfluorooctyl)thio)-1H-imidazolium-methanesulfonate]
[3]; [6]
  OFS (surface tension): 24.39 mN/m
[3]; [7]
  OFS (surface tension): 16.21 mN/m

## 1-methyl-2-((perfluorohexylethyl)thio)imidazoliumiodide-Co-1-iodoperfluorooctylane [1-iodoperfluorooctyl-Co-complex]
[5]
  Solubility in 3M Novec 71 IPA: 20.5 mg/mL

## N.O=C(O)C(F)(F)C(F)OC(F)(F)C(F)(F)C(F)(F)OC(F)(F)F (centres unmarked) [Ammonium-4,8-dioxa-3H-perfluorononanoate, reference compound]
[3]; [6]
  OFS (surface tension): 64.87** mN/m
[3]; [7]
  OFS (surface tension): 46.42 mN/m
